Assay results published in patent US8058227B2, “Method of treating fibrosis in a subject in need thereof comprising administering a composition comprising a CSD” (Medical University of South Carolina, priority 2006, dated 2011).
Entries after “also recorded” stand apart in the source; their conditions may differ.

Legend:
[1] = test system: normal lung fibroblasts (NLF); assay: Immunocytochemistry and laser confocal microscopy of CSD peptide-treated NLF; format: cell-based, human
Experimental: (§1) NLF or SLF cultured in 4-well glass chamber slides (Nalge Nunc International, Naperville, Ill.) as previously described (43) were incubated with CSD peptide or scrambled (Scr) peptide, fixed, permeabilized, and stained red with 7-aminoactinomycin D to detect nuclei and green using appropriate primary and secondary antibodies to detect caveolin-1 or ph-ERK. Images were captured by confocal microscopy.
(§2) NLF or SLF cultured in 4-well glass chamber slides (Nalge Nunc International, Naperville, Ill.) as previously described (43) were incubated with CSD peptide or scrambled (Scr) peptide, fixed, permeabilized, and stained red with 7-aminoactinomycin D to detect nuclei and green using appropriate primary and secondary antibodies to detect ph-JNK or ph-Akt. Images were captured by confocal microscopy.
(§3) NLF and SLF were cultured in 4-well glass chamber slides (Nalge Nunc International, Naperville, Ill.) and stained as previously described (43) using the indicated primary antibodies and appropriate secondary antibodies tagged with Alexa Fluoro® 488 (Molecular Probes, Eugene, Oreg.). Nuclei were stained with 7-aminoactinomycin D (Molecular Probes, Eugene, Oreg.). Images were acquired using a Zeiss 510SML Laser Confocal Microscope (excitation S490/20, emission D528/38) fitted with an oil-immersion objective (40×/1.4).

[2] = test system: scleroderma lung fibroblasts (SLF); assay: Immunocytochemistry and laser confocal microscopy of CSD peptide-treated SLF; format: cell-based, human
Experimental: as §1, §2, §3

[3] = test system: bleomycin-induced lung fibrosis; assay: Bleomycin-induced lung fibrosis and CSD treatment in mice; format: in vivo, mouse
Experimental: Extract from each mouse was analyzed by Western blotting (25 μg total protein per lane) using antibodies against ph-ERK, caveolin-1, PKCε, ASMA, PKCα, tenascin-C, ph-Akt, ph-JNK, and actin (loading control); and the results quantified densitometrically (averages±s.e.m. are shown). The level of each protein in “Saline” was set to 100 arbitrary units. Actin levels (loading control) were similar in all four samples (not shown). Statistical significance: ns, not significant; **p<0.01; ***p<0.001.
Masson's Trichrome-stained sections from the experiments described in FIG. 11 were used to evaluate the effects of bleomycin and the CSD peptide on collagen expression (blue product) and lung tissue morphology. […] To generate the table, Masson's Trichrome-stained slides of lung tissue from all 41 mice sacrificed 14 days after saline or bleomycin treatment were scored blind in terms of the portion of the lung with abnormal morphology using an arbitrary scale: Normal morphology as in A=0, slightly altered morphology as in B=1, moderately altered morphology as in C=2, and severely altered morphology as in D 3. Bar in C=0.1 mm.
This procedure was approved by the MUSC Institutional Animal Care & Use Committee. Ten-week old, male CD 1 mice (Charles River, Boston, Mass.) were anesthetized and received bleomycin (Calbiochem, La Jolla, Calif.) or saline solution by intratracheal instillation as previously described (44). Two approaches were used for CSD peptide treatment. In both approaches the peptide treatment was initiated one day prior to bleomycin. In the first approach, Alzet pumps delivering 0.5 μl/h for 14 days of a 1 mM solution of CSD peptide were implanted into twelve mice; twelve additional mice received no pump. In the second approach twelve mice received daily intraperitoneal injections of 100 μl of a 0.15 mM solution of the CSD peptide for 14 days; twelve additional mice received the scrambled peptide. One day later, six mice from each group of twelve received intratracheal bleomycin, six received saline. After 14 days, lungs were harvested. Half of each set of lungs was fixed, sectioned, and stained with Masson's Trichrome Stain. The other half of each set of lungs was dissolved in SDS-PAGE sample buffer for Western blotting experiments. Because very similar results were obtained using the two approaches to CSD peptide treatment, results were pooled.
Student's t test was used to analyze protein expression levels in lung tissue samples obtained from normal individuals and from scleroderma patients. Protein expression levels for samples obtained from in vitro experiments and from mice were analyzed by two-way analysis of variance (ANOVA) followed by the Bonferroni post-test. For experiments in which the degree of tissue damage in mice treated with bleomycin was scored on an arbitrary scale, data was analyzed using the Mann-Whitney rank sum test. In all tests, results were regarded as statistically significant if p<0.05.

[4] = test system: scleroderma lung fibroblasts (SLF); assay: Collagen and ASMA expression in SLF treated with CSD and its subdomains; format: cell-based, human
Experimental: The indicated cell types (NLF and SLF) were cultured as described with 0, 1, 3, or 5 μM of the indicated peptides. Collagen in the medium and ASMA and actin (loading control) in the cell layer were detected by Western blotting. Blots were quantified densitometrically. The level of collagen and ASMA in cells treated with no peptide (divided by the level of actin) was set to 100 arbitrary units. Because SLF express higher levels of collagen and ASMA than do NLF, 100 arbitrary of collagen in SLF is equivalent to 195 arbitrary units of collagen in NLF and 100 arbitrary units of ASMA in SLF is equivalent to 255 arbitrary units of ASMA in NLF. The data presented are the average of the densitometric quantification of three independent experiments.
To compare the activity of CSD to its subdomains, five subdomains [A (82-88 amino acids), B (89-95), C (96-101), AB (82-95) and BC (89-101)] were synthesized in fusion with the Antennapedia internalization sequence and added to culture medium at 1, 3, and 5 μM. […] Very different results were obtained when examining ASMA expression.

eNOS = details: endothelial cells; Bernatchez et al. (4); cited from earlier work
[5] = mouse lung tissue, Western blotting, 14 days

DGIWKASFTTFTVTKYWFYR [CSD peptide]
distribution of caveolin-1 staining ([1]; CSD peptide vs Scr peptide): staining associated with the plasma membrane becoming more prominent
level of caveolin-1 expression detected by IHC ([1]; CSD peptide vs Scr peptide): did not affect
distribution of activated Akt staining ([1]; CSD peptide vs control peptide): preferentially decreased perinuclear, nuclear, and cytoplasmic staining while increasing staining associated with the plasma membrane
distribution of activated JNK staining ([1]; CSD peptide vs control peptide): preferentially decreased perinuclear staining and increased staining associated with the plasma membrane
level of activated Akt (IHC) ([1]; CSD peptide vs control peptide): decreases
level of activated ERK (IHC) ([1]; CSD peptide vs control peptide): decreases
level of activated JNK (IHC) ([1]; CSD peptide vs control peptide): decreases
localization of residual activated ERK staining ([1]; after CSD peptide): primarily perinuclear and cytoplasmic
level of caveolin-1 expression detected by IHC ([2]; CSD peptide vs Scr peptide): did not affect
distribution of caveolin-1 staining ([2]; CSD peptide vs Scr peptide, particularly in SLF): staining associated with the plasma membrane becoming more prominent
distribution of activated Akt staining ([2]; CSD peptide vs control peptide): preferentially decreased perinuclear, nuclear, and cytoplasmic staining while increasing staining associated with the plasma membrane
distribution of activated JNK staining ([2]; CSD peptide vs control peptide): preferentially decreased perinuclear staining and increased staining associated with the plasma membrane; also recorded: eliminated the intense punctate cytoplasmic staining
level of activated Akt (IHC) ([2]; CSD peptide vs control peptide): decreases
level of activated ERK (IHC) ([2]; CSD peptide vs control peptide): decreases
level of activated JNK (IHC) ([2]; CSD peptide vs control peptide): decreases
localization of residual activated ERK staining ([2]; after CSD peptide): primarily perinuclear and cytoplasmic
median weight loss ([3]; bleomycin-treated mice receiving peptide (30% in untreated mice)): 14 % of original weight
tissue damage and collagen deposition ([3]; bleomycin-treated mice, CSD peptide via Alzet pumps or intraperitoneal injection, 14 days, Masson's Trichrome): slight to moderate
survival and lung tissue morphology ([3]; bleomycin-treated mice, systemic treatment with the peptide): striking positive effect
expression of caveolin-1 itself ([3]; lung tissue of bleomycin-treated mice, Western blotting): did not affect
inhibition of bleomycin-induced decrease in PKCα [3, 5]: about 50%
inhibition of bleomycin-induced decrease in PKCε [3, 5]: at least 75%
inhibition of bleomycin-induced increase in ASMA [3, 5]: at least 75%
inhibition of bleomycin-induced increase in ph-Akt [3, 5]: at least 75%
inhibition of bleomycin-induced increase in ph-ERK [3, 5]: at least 75%
inhibition of bleomycin-induced increase in ph-JNK [3, 5]: at least 75%
inhibition of bleomycin-induced increase in tenascin-C [3, 5]: at least 75%
collagen expression ([4]; 3 μM peptide): completely inhibited
inhibition of ASMA expression ([4]; 5 μM peptide): about 80%
ASMA expression ([4]; peptides at 1, 3, and 5 μM): inhibited
eNOS activity (eNOS): most strongly inhibited
